According to patent US6432982B1, “Benzothiophenes, and formulations and methods using same” (Eli Lilly and Company, priority 1996, dated 2002):
Marks after values point to notes of the source that are not given here.

Assays:
[1] = tested on: uterus of ovariectomized (OVX) rats; assay: Uterine weight in ovariectomized rat post-menopausal model; type: in vivo, Sprague Dawley rats; details: for Uterine Weight % inch (Uterine Weight % increase versus the ovarierectomized controls): oral, daily for 4 days
Procedure: (§1) In the examples illustrating the methods, a post-menopausal model is used in which effects of different treatments upon circulating lipids are determined.
(§2) Seventy-five day old female Sprague Dawley rats (weight range of 200 to 225 g) are obtained from Charles River Laboratories (Portage, Mich.). The animals are either bilaterally ovariectomized (OVX) or exposed to a Sham surgical procedure at Charles River Laboratories, and then shipped after one week. Upon arrival, they are housed in metal hanging cages in groups of 3 or 4 per cage and had ad libitum access to food (calcium content approximately 0.5%) and water for one week. Room temperature is maintained at 22.2°±1.7° C. with a minimum relative humidity of 40%. The photoperiod in the room is 12 hours light and 12 hours dark.
(§3) After a one week acclimation period (therefore, two weeks post-OVX) daily dosing with test compound is initiated. 17α-ethynyl estradiol or the test compound are given orally, unless otherwise stated, as a suspension in 1% carboxymethylcellulose or dissolved in 20% cyclodextrin. Animals are dosed daily for 4 days. Following the dosing regimen, animals are weighed and anesthetized with a ketamine: Xylazine (2:1, V:V) mixture and a blood sample is collected by cardiac puncture. The animals are then sacrificed by asphyxiation with CO2, the uterus is removed through a midline incision, and a wet uterine weight is determined.

[2] = tested on: uterine eosinophil peroxidase; assay: Uterine Eosinophil Peroxidase (EPO) Assay; type: in vivo, Sprague Dawley rats; details: for Uterine Eosinophil (Vmax) (Eosinphil peroxidase Vmaxium): OVX rats, oral, daily for 4 days
From the text: as §2, §3
Uteri are kept at 4° C. until time of enzymatic analysis. The uteri are then homogenized in 50 volumes of 50 mM Tris buffer (pH−8.0) containing 0.005% Triton X-100. Upon addition of 0.01% hydrogen peroxide and 10 mM O-phenylenediamine (final concentrations) in Tris buffer, increase in absorbance is monitored for one minute at 450 nm. The presence of eosonophils in the uterus is an indication of estrogenic activity of a compound. The maximal velocity of a 15 second interval is determined over the initial, linear portion of the reaction curve.

[3] = tested on: ovariectomized (OVX) rats; assay: Serum cholesterol analysis in ovariectomized rats; type: in vivo, Sprague Dawley rats; details: for Serum Cholest. % Dec. (Serum cholesterol decrease versus ovariectomized controls): oral, daily for 4 days
Procedure: as §1, §2, §3
Blood samples are allowed to clot at room temperature for 2 hours, and serum is obtained following centrifugation for 10 minutes at 3000 rpm. Serum cholesterol is determined using a Boehringer Mannheim Diagnostics high performance cholesterol assay. Briefly the cholesterol is oxidized to cholest-4-en-3-one and hydrogen peroxide. The hydrogen peroxide is then reacted with phenol and 4-aminophenazone in the presence of peroxidase to produce a p-quinone imine dye, which is read spectrophotemetrically at 500 nm. Cholesterol concentration is then calculated against a standard curve. The entire assay is automated using a Biomek Automated Workstation.

[4] = tested on: MCF-7 breast adenocarcinoma cells; assay: MCF-7 Proliferation Assay; type: cell-based; details: Homo sapiens, MCF7; tritiated thymidine incorporation, 48 hours with drug, versus the control (DMSO); read-out: IC50, inhibition of proliferation of MCF-7 cells
Procedure: MCF-7 breast adenocarcinoma cells (ATCC HTB 22) are maintained in MEM (minimal essential medium, phenol red-free, Sigma, St. Louis, Mo.) supplemented with 10% fetal bovine serum (FBS) (V/V), L-glutamine (2 mM), sodium pyruvate (1 mM), HEPES {(N-[2-hydroxyethyl]piperazine-N′-[2-ethanesulfonic acid]10 mM}, non-essential amino acids and bovine insulin (1 ug/mL) (maintenance medium). Ten days prior to assay, MCF-7 cells are switched to maintenance medium supplemented with 10% dextran coated charcoal stripped fetal bovine serum (DCC-FBS) assay medium) in place of 10% FBS to deplete internal stores of steroids. MCF-7 cells are removed from maintenance flasks using cell dissociation medium (Ca++/Mg++ free HBSS (phenol red-free) supplemented with 10 mM HEPES and 2 mM EDTA). Cells are washed twice with assay medium and adjusted to 80,000 cells/mL. Approximately 100 μL (8,000 cells) are added to flat-bottom microculture wells (Costar 3596) and incubated at 37° C. in a 5% CO2 humidified incubator for 48 hours to allow for cell adherence and equilibration after transfer. Serial dilutions of drugs or DMSO as a diluent control are prepared in assay medium and 50 μL transferred to triplicate microcultures followed by 50 μL assay medium for a final volume of 200 μL. […] Samples are counted by liquid scintillation using a Wallac BetaPlace β counter. […]

[5] = compared to the ovariectomized animals, EE2 orally at 0.1 mg/kg/day

Row | SMILES | Uterine Weight % inch (Uterine Weight % increase versus the ovarierectomized controls) ([1]; dose 0.1 mg/kg) | Uterine Weight % inch (Uterine Weight % increase versus the ovarierectomized controls) ([1]; dose 1.0 mg/kg) [%] | Uterine Weight % inch (Uterine Weight % increase versus the ovarierectomized controls) ([1]; dose 10.0 mg/kg) | Uterine Eosinophil (Vmax) (Eosinphil peroxidase Vmaxium) ([2]; dose 0.1 mg/kg) | Uterine Eosinophil (Vmax) (Eosinphil peroxidase Vmaxium) ([2]; dose 1.0 mg/kg) | Uterine Eosinophil (Vmax) (Eosinphil peroxidase Vmaxium) ([2]; dose 10.0 mg/kg) | Serum Cholest. % Dec. (Serum cholesterol decrease versus ovariectomized controls) ([3]; dose 0.1 mg/kg) | Serum Cholest. % Dec. (Serum cholesterol decrease versus ovariectomized controls) ([3]; dose 1.0 mg/kg) | Serum Cholest. % Dec. (Serum cholesterol decrease versus ovariectomized controls) ([3]; dose 10.0 mg/kg) | IC50 [4] [µM] | effect on uterine weight (in words) [1, 5] | eosinophil infiltration into the uterus (in words) ([2]; stromal layer of ovariectomized rat uteri) | effect on serum cholesterol (in words) [3, 5]
1 | Cc1cc(C(=O)c2c(-c3ccc(O)cc3)sc3cc(O)ccc23)cc(C)c1OCCN1CCCCC1.Cl [compound 5, [2-(4-Hydroxyphenyl)-6-hydroxybenzo[b]thien-3-yl][4-[2-(1-piperidinyl)ethoxy]3,5-dimethylphenyl]methanone Hydrochloride] | −24.4% | −16.4 | 27.4% | 4.0 | 7.2 | 25.9* | 33.8* % | 55.5* % | 74.9* % | 0.04 |  |  | 
2 | Cl.O=C(c1ccc(OCCN2CCCCC2)c(F)c1)c1c(-c2ccc(O)cc2)sc2cc(O)ccc12 [compound 1, [2-(4-Hydroxyphenyl)-6-hydroxybenzo[b]thien-3-yl][4-[2-(1-piperidinyl)ethoxy]3-fluorophenyl]methanone Hydrochloride] | 18.4% | 14.9 | 12.5% | 5.4 | 4.5 | 2.7 | 45.1* % | 59.5* % | 64.1* % |  |  |  | 
3 | Cl.O=C(c1ccc(OCCN2CCCCC2)cc1Cl)c1c(-c2ccc(O)cc2)sc2cc(O)ccc12 [compound 8, [2-(4-Hydroxyphenyl)-6-hydroxybenzo[b]thien-3-yl][4-[2-(1-piperidinyl)ethoxy]2-chlorophenyl]methanone Hydrochloride] |  |  | 37.5* % |  |  | 12.0 |  |  | 42.0* % |  |  |  | 
4 | C#C[C@]1(O)CC[C@H]2[C@@H]3CCc4cc(O)ccc4[C@H]3CC[C@@]21C [EE2, 17α-ethynyl estradiol, reference compound] | 207.5* % |  |  | 205.8* |  |  | 87.3* % |  |  |  | substantially greater than the uterine weight of the ovariectomized animals | substantial and expected increase in eosinophil infiltration | caused a decrease in serum cholesterol
5 | Cl.N#Cc1cc(C(=O)c2c(-c3ccc(O)cc3)sc3cc(O)ccc23)ccc1OCCN1CCCCC1 [compound 9, [2-(4-Hydroxyphenyl)-6-hydroxybenzo[b]thien-3-yl][4-[2-(1-piperidinyl)ethoxy]3-cyanophenyl]methanone Hydrochloride] |  |  | 16.8% |  |  | 7.8 |  |  | 38.8* % |  |  |  | 
6 | Cc1cc(C(=O)c2c(-c3ccc(O)cc3)sc3cc(O)ccc23)cc(C(C)(C)C)c1OCCN1CCCCC1.Cl [compound 6, [2-(4-Hydroxyphenyl)-6-hydroxybenzo[b]thien-3-yl][4-[2-(1-piperidinyl)ethoxy]-3-t-butyl-5-methylphenyl]methanone Hydrochloride] |  | −35.7 |  |  | 2.8 |  |  | 55.2* % |  |  |  |  | 
7 | Cl.O=C(c1ccc(OCCN2CCCCC2)c(Cl)c1)c1c(-c2ccc(O)cc2)sc2cc(O)ccc12 [compound 7, [2-(4-Hydroxyphenyl)-6-hydroxybenzo[b]thien-3-yl][4-[2-(1-piperidinyl)ethoxy]3-chlorophenyl]methanone Hydrochloride] |  |  | 46.1* % |  |  | 30.9 |  |  | 62.2* % |  |  |  | 
